# Data: patent publication US20190350964A1, “ANTI-CANCER COMPOUNDS AND USES THEREOF” (NATIONAL UNIVERSITY OF SINGAPORE, priority 2016, published 2019)
# Legend:
# [1] = test system: Ras/Raf/MEK/ERK pathway; assay: Immunoblot of ERK phosphorylation; assay type: cell-based, human; conditions: normal BJ cells, 24 h
# Method: Total cell lysates were prepared with 1% triton lysis buffer [25 mM Tris HCl (pH 8.0), 150 mM NaCl, 1% triton-X100, 1 mM dithiothreitol (DTT), protease inhibitor mix (Complete Mini, Roche) and phosphatase inhibitor (PhosphoStop, Roche)] and subjected to SDS-PAGE. The following antibodies were used for immunoblotting: anti-β-actin (Sigma-Aldrich), anti-cleaved PARP (Abcam, #ab32064), anti-PI5P4Kα (#5527), anti-PI5P4Kβ (#9694), anti-cleaved caspase-3 (#9664), anti-pHistone H3(Ser10) (#3377), anti-pAkt(S473) (#9271), anti-pAkt(T308) (#13038), anti-total Akt (#9272), anti-p70S6K(T389) (#9234), anti-total p70S6K (#9202), anti-pErk (#4370), anti-γ-Histone H2AX (#9718) (Cell signaling) and anti-PIK3IP1 (Proteintech, #16826-1-AP). The secondary antibodies used were sheep anti-mouse IgG HRP and donkey anti-rabbit IgG HRP (Amersham; 1:2000 dilution). Immunoreactive proteins were visualized using ECL reagent (Amersham). Where indicated, intensities of protein bands were quantified by densitometry (Odyssey V3.0), normalized to their loading controls and then calculated as fold expression change relative to DMSO control.
# [2] = target: T1, Isoform 3 of Cleavage and polyadenylation specificity factor subunit 7 (Homo sapiens, UniProt Q8N684); assay: MS-CETSA in normal BJ cell lysates; assay type: binding; conditions: Uniprot Q8N684-3, lysate, 100 μM compound
# T1 construct: After collecting data covering >8,000 proteins in lysates of normal BJ cells; endogenous in cells; host or cells: normal BJ cells, lysate
# T1 sequence (Q8N684 1-514 isoform Q8N684-3): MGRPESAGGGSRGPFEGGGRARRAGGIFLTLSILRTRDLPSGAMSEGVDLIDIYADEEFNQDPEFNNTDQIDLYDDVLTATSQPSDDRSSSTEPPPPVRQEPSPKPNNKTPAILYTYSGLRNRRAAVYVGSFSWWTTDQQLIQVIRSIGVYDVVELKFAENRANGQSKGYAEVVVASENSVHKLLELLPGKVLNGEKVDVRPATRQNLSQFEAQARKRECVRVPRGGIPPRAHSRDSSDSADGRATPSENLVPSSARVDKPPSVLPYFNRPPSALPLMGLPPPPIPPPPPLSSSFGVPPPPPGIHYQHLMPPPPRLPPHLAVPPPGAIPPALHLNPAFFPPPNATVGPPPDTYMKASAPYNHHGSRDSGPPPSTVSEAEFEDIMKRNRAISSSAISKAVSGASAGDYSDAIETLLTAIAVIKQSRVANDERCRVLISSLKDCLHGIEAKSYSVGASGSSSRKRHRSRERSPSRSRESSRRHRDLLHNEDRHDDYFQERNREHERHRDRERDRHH
# Method: (§1) Target identification was performed by cellular thermal shift assay (CETSA) coupled with quantitative mass spectrometry. In brief, normal BJ cells were lysed by combination of freeze/thaw and mechanical shearing with needle in buffer [50 mM HEPES (pH 7.5), 5 mM β-glycerophosphate, 0.1 mM Sodium Vanadate, 10 mM MgCl2, 1 mM TCEP and 1× Protease inhibitor Cocktail]. The cell debris was removed by centrifugation at 20,000 g for 20 min at 4° C. […] Each lysate was divided into 10 aliquots for heat treatment at the respective temperatures for 3 min in a 96-well thermocycler, followed by 3 min at 4° C. The lysate was centrifuged at 20,000 g for 20 min at 4° C. and the supernatant was transferred into microtubes for MS sample preparation.
# (§2) After lysis, at least 100 μg of the protein (measured with a BCA assay) was subjected to reduction, denaturation and alkylation. Samples were subsequently incubated with sequencing grade LysC (Wako) and trypsin (Promega) for digestion overnight at 37° C. The digested samples were dried using a centrifugal vacuum evaporator, solubilized in 100 mM TEAB. […]
# (§3) Proteins for which a low temperature plateau was not present were deleted using a cut off >0.85 for the average reading of the first three temperature points (in our experience proteins melting already at −37° C. are more prone to give false positives in a shift analysis).
# [3] = test system: NUGC3; assay: MTT cytotoxicity test (GI50); assay type: cell-based; conditions: Homo sapiens, NUGC-3; NUGC3, cancer, gastric; MTT 72 h
# [4] = test system: Ras-driven glioma initiating cells (GICs); assay: Brain slice explants (orthotopically implanted ex vivo model); parameters: species or system mouse; conditions: 20 μM, 4 days
# Method: Fifty thousand GICs were orthotopically implanted into the forebrain of wild-type mice, and at 7 days post-implantation, brain slice explants were established as previously described (Sampetrean, O. et al., Neoplasia 13: 784-791 (2011)). […] Images were acquired on an FV10i Olympus confocal microscope (Olympus) and tumor area was quantified by Nikon NIS-element software. Experiments were performed in triplicate. At the end of the experiment (Day 4), slices were fixed overnight in 4% paraformaldehyde, embedded in paraffin and then sectioned at a thickness of 4 μm. Deparaffinized sections were stained with rabbit polyclonal antibody against cleaved caspase 3 (Cell Signaling). Immune complexes were detected using Histofine (Nichirei Biosciences) and ImmPACTDAB (Vector Laboratories). All animal experiments were performed in accordance with the animal care guidelines of Keio University.
# [5] = target: T2, Arsenite methyltransferase (Homo sapiens, UniProt Q9HBK9); assay: MS-CETSA in normal BJ cell lysates; assay type: binding; conditions: lysate, 100 μM compound
# T2 construct: After collecting data covering >8,000 proteins in lysates of normal BJ cells; endogenous in cells; host or cells: normal BJ cells, lysate
# T2 sequence (Q9HBK9 whole entry): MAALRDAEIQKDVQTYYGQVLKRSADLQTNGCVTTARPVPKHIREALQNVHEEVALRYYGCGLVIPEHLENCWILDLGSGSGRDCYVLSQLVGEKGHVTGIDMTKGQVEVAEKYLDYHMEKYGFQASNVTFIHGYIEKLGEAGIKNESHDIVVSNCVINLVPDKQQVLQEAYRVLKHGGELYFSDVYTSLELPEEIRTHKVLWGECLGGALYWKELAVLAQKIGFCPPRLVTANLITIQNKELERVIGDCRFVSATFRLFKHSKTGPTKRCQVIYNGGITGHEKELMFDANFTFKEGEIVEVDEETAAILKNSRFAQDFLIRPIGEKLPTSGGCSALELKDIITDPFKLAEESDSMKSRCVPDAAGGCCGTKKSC
# Method: as §1, §2, §3
# [6] = test system: RPE-1/hTert; assay: MTT cytotoxicity test (GI50); assay type: cell-based; conditions: Homo sapiens, normal, retina, MTT 72 h
# [7] = test system: HCT-15 human colon adenocarcinoma cells; assay: HCT-15 tumor xenograft in nude mice; assay type: in vivo, mouse
# From the text: BALB/c athymic female nude mice (nu/nu, 5-7 weeks) (InVivos) were kept under specific pathogen-free (SPF) conditions. The care and use of mice was approved by the Duke-NUS IACUC in accordance with protocol 2015/SHS/1030. HCT15 human colon cancer cells (5×10^6) or MDA-MB-231 human breast cancer cells (4×10^6 with Matrigel) were subcutaneously injected into the flanks of mice. When the mean tumor volume reached 100-300 mm^3 (Day 1), the mice were randomly divided into experimental groups of 6 mice by an algorithm that moves animals around to achieve the best case distribution to assure that each treatment group has similar mean tumor burden and standard deviation. No statistical method was used to predetermine sample size. […] Paclitaxel (Cayman Chemical) was dissolved in ethanol:Tween 80=1:3 (v/v) solution followed by the addition of a 5% glucose solution (final ratio, ethanol:Tween 80:5% glucose=5:15:80) and injected via the tail vain (IV). Tumor dimensions were measured using calipers, and tumor volume (mm^3) was calculated using the formula width^2×length/2 in a blinded fashion. On Day 12 (HCT15) or Day 16 (MDA-MB-231), mice were sacrificed. Tumors were collected, fixed overnight in 4% paraformaldehyde (PFA) and stored in 70% ethanol. For immunostaining, antigens were retrieved from formaldehyde-fixed, paraffin-embedded tumor tissue sections for 30 min by boiling in sodium citrate buffer (pH 6.0) using a microwave histoprocessor (Milestone). Endogenous peroxidase activity in tissue sections was depleted by treatment with 3% hydrogen peroxide (H2O2 in 1×TBS) for 20 min at room temperature. Tumor tissue sections were incubated overnight with anti-β-tubulin (Abcam; 1:100 in 3% BSA/TBS-Tween 20) at 4° C. followed by incubation with goat anti-rabbit FITC-conjugated secondary antibody (Invitrogen; 1:200 in 3% BSA/TBS) for 1 h at 25° C. After dehydration treatment, coverslips were mounted using DAPI mounting medium (Vector). Images were acquired in 3D-SIM mode using a super resolution microscope (Nikon), and the number of cells with either 2 or mitotic-spindles was quantified (n>50 cells per section, 6-7 sections per treatment). For detection of apoptosis using the TUNEL method, the ApopTag Plus Peroxidase In Situ Apoptosis Detection Kit (Millipore) was used for formaldehyde-fixed, paraffin-embedded tumor tissue sections treated with b5 (80 mg/kg, IP) or control vehicle for 12 days. Slide scans were acquired using a MetaSystems Metafer built on a Zeiss Axiolmager Z.2 upright microscope. The system is equipped with a CoolCubel camera and a Zeiss Plan-Neofluar 20×/0.5 Ph2 objective lens. Image acquisition was controlled with Metafer4 software, and stitching was performed with the VSlide software and further processed using the open source software FIJI. A custom macro was used to batch process the images in the following sequence: Gaussian filter, color deconvolution of hematoxylin and DAB, thresholding the hematoxylin image, watershed to separate touching nuclei, and then count the number of hematoxylin-stained nuclei. For the DAB image, a fixed threshold was used, watershed applied and the number of DAB stained nuclei counted. In all cases, no data or animals were excluded and results are expressed as mean and standard deviation of the mean.
structure (smiles),measurement,setting,value
"N#C/C(=C\c1cccc2cnccc12)c1c[nH]c2ccccc12 [a131, (Z)-2-(1H-indol-3-yl)-3-(5-isoquinolyl)prop-2-enenitrile]",inhibition of the Ras/Raf/MEK/ERK pathway (ERK phosphorylation),[1],Neither a131 and a166 treatment nor PI5P4Ks knockdown inhibited
same,ED score,[2],0.3008
same,mean Delta Tm,[2]; in °C (unit assumed),1.653
same,GI50,[3],1000 nM
same,apoptosis (cleaved caspase-3) in tumor versus surrounding normal tissue,[4],"induced apoptosis only in tumors, but not surrounding normal tissues"
same,tumor growth of GICs in brain explants (Day 4/Day 0),[4],significantly suppressed growth
same,ED score,[5],0.6214
same,ΔTm at 100 µM,[5]; read-out: mean Delta Tm,4.88 °C
same,GI50,[6],5.2 µM
same,misaligned chromosomes / multipolar spindles in tumor sections,"[7]; HCT-15 tumor sections, Day 12",caused massively misaligned chromosomes with multipolar spindles in tumor sections
same,antitumor activity (tumor volume),"[7]; a131 20 mg/kg, b5 40-80 mg/kg, PO or IP twice daily, 12 days, paclitaxel IV",marked antitumor efficacies
same,body weight loss,"[7]; xenograft-bearing mice, PO or IP twice daily",without any body weight loss
